Experimental data from patent publication US12037354B2, “Cyclic pantetheine derivatives and uses thereof” (VectivBio Comet AG, priority 2018, dated 2024).

Assays:
[1] = system: Pkd1-/- mouse inner medullary collecting duct cells (mIMRFNPKD 5E4); test: mPKD 3D cyst swelling assay (forskolin-induced), Example 818; format: cell-based; settings: 50 uM, after 72 hours of forskolin exposure
Description: Cell model and control compounds. mIMCD3 WT cells were obtained via ATCC and modified to create the mIMRFNPKD 5E4 cell line, which has a CRISPR-Cas mediated knockout for Pkd1 as described SLAS Discov. 2017 September; 22(8):974-984. doi: 10.1177/2472555217716056. Cells were cultured in DMEM/F12 (Sigma)+10% FBS (Sigma)+0.5% Pen/Strep (Gibco)+1% GluMax (Gibco). Control compounds used were forskolin (Calbiochem, 344282), Rapamycin (Selleckchem, S1039) and Staurosporin (Selleckchem, S1421).
The 3D mouse cyst swelling assay was performed with Pkd1^−/− mouse inner medullary collecting duct cells (mIMRFNPKD 5E4). The cyst swelling protocol that was used was described previously (SLAS Discov. 2017 September; 22(8):974-984. doi: 10.1177/2472555217716056), with further optimization.
3D culture and compound exposure. mIMRFNPKD 5E4 cells were mixed with Cyst-Gel (OcellO BV). 15 μL of cell-gel mix was pipetted to 384-well plates (Greiner μClear, Greiner Bio-One B.V.) using a CyBio Felix 96/60 robotic liquid dispenser (Analyik Jena AG). […]
Imaging and image analysis. […] Cyst area was determined by calculating for the area in px of each object in every in-focus plain. […] (N represented is number of wells) Fraction of apoptotic nuclei as an indicator of toxicity was calculated as the amount of nuclei without actin signal relative to the total amount of nuclei, both as count-measurements. […]

[2] = system: Monocytes differentiated to M1 macrophages; test: M1 differentiation assay (TNFα, IL6, IL10 ELISA, FACS), Example 807; format: cell-based, human
Description: Monocytes were isolated by positive isolation with CD14+ microbeads (Miltenyi, 130-050-201). Monocytes were 99% viable and were 96% purity as analyzed by FACS and CD14+(BD, 563561). 100,000 monocytes along with compounds at the dose of 10 and 50 μM were allowed to differentiate to macrophages with 10 ng/ml GMCSF (R&D, 15-GM-050/CF) in RPMI complete media (Invitrogen, 22400089) with 15% FBS (Hyclone SV30087.03) and 1% Penicillin-Streptomycin (Gibco, 15140-122). On day 2 and 4 half the media was refreshed with fresh GM-CSF and compounds at 10 and 50 μM dose. On day 6 the macrophages were matured with GMCSF, IFNγ (R&D 285-IF-100/CF) and LPS (Sigma, L6143) in the presence of 10 μM and 50 μM of compounds. After 24 h, supernatant was collected for the measurement of TNFα (DKW, 1117202) IL6 (DKW, 1110602), IL10 (DKW, 1110003) by ELISA. Macrophages were detached gently on ice with EDTA (Invitrogen, 15575-038) and analyzed by FACS (BD LSR Fortessa, 853492). Cells were stained for live/dead dye, surface and intracellular markers with fixation/permeabilization solution (BD, 554714) and ALIVE/DEAD™ Fixable Near-IR Dead Cell Stain Kit (BD, L34976), mouse anti human CD86 APC (BD, 555660), mouse anti-human CD163 PE (BD, 556018), mouse anti-human CD68 FITC (BD, 562117) or isotype controls anti-mouse IgG1 κ PE (BD, 559320) and anti-mouse IgG1 κ APC (BD, Anti mouse IgG1 κ APC (BD, 55571). Mature M1 macrophages were defined as CD86+CD68+CD163− and increase in TNFα, IL6, and decrease in IL-10.

| Compound | % prevention of forskolin-induced cyst swelling [1] | % decrease in Macrophage IL-6 Secretion ([2]; 10 uM) | % decrease in Macrophage TNFα Secretion ([2]; 50 uM) | % Increase in IL-10 Secretion ([2]; 10 uM) | % decrease in Macrophage TNFα Secretion ([2]; 10 uM) |
| --- | --- | --- | --- | --- | --- |
| COC(=O)/C=C/C(=O)SCCNC(=O)CCNC(=O)[C@@H]1OP(=O)(O)OCC1(C)C [Compound 21] | ≥10% |  |  |  |  |
| CC(C)=CC(=O)SCCNC(=O)CCNC(=O)[C@@H]1OC(C)(C)OCC1(C)C [Compound 850, S-2-(3-{[(R)-2,2,5,5-Tetramethyl-1,3-dioxan-4-yl]carbonylamino}propionylamino)ethyl 3-methyl-2-butenethioate] |  | ≥30% | ≥30% |  |  |
| CC1(C)OC(=O)C(CC(=O)SCCNC(=O)CCNC(=O)[C@@H]2OC(C)(C)OCC2(C)C)O1 (stereo partly drawn) [Compound 851] |  | ≥30% |  | ≥30% | ≥30% |
